These results are taken from patent publication US8592603B2, “Synthesis of 2-(4-aminophenyl) benzothiazole derivatives and use thereof” (Kaohsiung Medical University, priority 2011, dated 2013).

Like-named read-outs stand apart in the source and are kept apart here.

Format in all cases: cell-based, human
Data set [1] concerns BCC cells. As to the kind of experiment: Cell viability by MTT assay after compound and UVA irradiation. As to conditions: for viability at 4 µM: Homo sapiens, BCC, light or radiation study, read-out: cell viability compared with untreated controls. How it is done:
(A) Dose-response curves for compound 6 ftested against BCC cells. Cells were seeded in a 96-well plate at 2500 cells per well and cultivated overnight until cell attachment. 6f-UVA at the indicated concentration was added into the culture media in triplicate and incubated for 4 h before 1 J/cm2 UVA irradiation. Twenty-four hours after irradiation, the MTT reagent was added into each well. The absorbance is directly proportional to the number of living cells. (B) To clarify whether 6-UVA has more cytotoxicity than either UVA irradiation alone or treatment with 6 alone, cells were cultured with or without 4 μM Formula 6f before different dosage of UVA irradiation. *p<0.05, **p<0.01 as compared with the control.
The method for UVA irradiation was described in the previous study (Kao, C. S.; Yu, H. S. J. Invest. Dermatol. 1992, 98, 734). For UVA irradiation, a specific UVA lamp emitting a peak wavelength of 365 nm with intensity of 0.75 mW/cm^2 (Vilber Lourmat, Moune La Vallee, Cedex, France) was used. The cultured cells were pretreated with different agents at 4 μM or pretreated with various concentrations (0-4 μM) of Formula 6 for 4 h before UVA irradiation. The cultured cells were rinsed with phosphate-buffered saline (PBS) and then irradiated with 1 J/cm^2 UVA in PBS to avoid the formation of medium-derived toxic photoproducts induced by UV exposure. The doses of irradiation were measured using a UVX radiometer (UVP, San Gabriel, Calif., USA). Immediately after phototreatment, PBS was removed and media were added to the cells. All the following experiments were performed three times in triplicate.
Cell viability was assessed by the MTT assay, a mitochondrial function assay based on the ability of viable cells to reduce the redox indicator MTT to insoluble formazan crystals by mitochondrial dehydrogenase. Briefly, cells were seeded in a 96-well plate at the cell density of 2500 cells/well. After an overnight incubation, the cells were treated with compounds at 4 μM and incubated for 24 h. The medium was then discarded and replaced with 10 μL of MTT dye. Plates were incubated at 37° C. for 2 h. The resulting formazan crystals were solubilized in 100 μL DMSO, and the optical density was read at 540 nm with a microplate reader (MRX-II, Dynex technology, Chantilly, Va.).
(In general: Tetrazolium dyes change colour on reduction, which living cells bring about.)

Data set [2] concerns BCC cells. Nature of the data set: Sub-G1 region analysis (PI, flow cytometry). As to conditions: 4 μM for 4 hours, 1 J/cm^2 UVA, 24 h after irradiation. How it is done:
BCC cells were treated with compounds at 4 μM and 1 J/cm^2 UVA. Twenty-four hours after irradiation, cells were harvested by trypsinization and centrifugation. Cell pellets were resuspended in 50% cold ethanol and fixed at −20° C. After fixation, cells were washed once with cold PBS and incubated in 0.5 mL of PBS containing 100 μg/mL RNase A for 20 min at 37° C. Cells were harvested by centrifugation at 400 g for 5 min, and 250 μL of PBS containing 50 μg/mL propidium iodide (PI) was added to the pellet. Thirty minutes later, the DNA contents of 10,000 events were measured by FACSscan flow cytometer (Elite ESP, Beckman Coulter, Brea, Calif.). Histograms were analyzed using Windows Multiple Document Interface software (WinMDI). Cells with DNA content less than that in untreated cells in G0/G1 were considered apoptotic. To investigate the effects of compounds 6 on cell cycle progression of BCC cells, the DNA content of cell nuclei was measured by flow cytometric analysis. […] BCC cells were treated with 4 μM agents for 4 hours followed by 1 J/cm^2 UVA irradiation. Twenty-four hours after irradiation, the PI reagent was used. Approximately 10000 cells from each group were analyzed with the FACScan flow cytometer. The apoptotic effects in 2.2% (control), 6.5% (6a), 13.4% (6b), 29.2% (6c), 24.4% (6d), 6.5% (6e), 35.4% (6f), 13.6% (6g), 13.8% (6h), 14.8% (6i) and 6.4% (6j) of sub-G1 DNA peak were obtained (% represented the percentage of cell counts).

A further data set has as its system JNK MAPK. As to the kind of experiment: Western blot analysis of MAPK phosphorylation: JNK. As to conditions: BCC cells, 6f-UVA (FIG. 6A). How it is done:
(A) After exposure to different concentration of 6f-UVA, cell lysates were collected and immunoblotted with specific antibodies as indicated. For the internal control, the same amounts of protein extract were also probed with antibody against actin. (B) As a control, the expression level of p-ERK was determined in the presence of oligomycin (25 μM) and ATP (1×10^−4M)
Total cell extracts from cultured BCC cells were obtained by lysing the cells in ice-cold RIPA buffer (1×PBS, 1% NP-40, 0.5% sodium deoxycholate, 0.1% SDS) containing 100 μg/mL PMSF, 2 μg/mL aprotinin, 2 μg/mL leupeptin and 100 μg/mL NaF. After centrifugation at 14,000 g for 30 min, protein in the supernatants was quantified by Bradford method (Bio-Rad). Forty micrograms of protein per lane was applied in 10% SDS-poly-acrylamide gel. After electrophoresis, protein was transferred from the gel to polyvinylidene difluoride (PVDF) membrane (Millipore, Bedford, Mass.). The membranes were blocked at room temperature for 1 h in PBS+0.1% Tween 20 (PBS-T) containing 5% skim milk. After being briefly rinsed with PBS-T, the blots were probed with respective primary antibodies at room temperature for 2 h or at 4° C. overnight. […] The relative amounts of specific proteins were quantified by densitometry scanning of X-ray films and analyzed by Eagle Eye Image System (Stratagene, La Jolla, Calif.)
(In western blotting, separated proteins are transferred to a membrane and probed.)

What is called viability is a read-out of living cells in per cent, often relative to untreated cells. As for `Nc1ccc(-c2nc3ccc(C(F)(F)F)cc3s2)cc1` [Formula 6f, 2-(4-Aminophenyl)-6-trifluoromethylbenzothiazole], the cell survival entry in the data set with BCC cells [1] (BCC cells, 4 μM for 4 h, 1 J/cm^2 UVA, 24 h after exposure (FIG. 3A)) is given as “below 50%”. For the same compound, in the data set with BCC cells [1] (BCC cells, different concentrations for 4 h, 1 J/cm^2 UVA (FIG. 3A)), the “inhibitory effect on cell viability” value is listed as “dependent on drug concentration”. Also, the viability at 4 µM in the data set on BCC cells [1] (BCC cells, 0.25 J/cm^2 UVA) was determined as 71%; in the data set with BCC cells [1] (BCC cells, 0.5 J/cm^2 UVA), 65%; in the data set on BCC cells [1] (BCC cells, 1 J/cm^2 UVA) it was 45%. Moreover, the “cytotoxicity against BCC cells” value in the data set with BCC cells [1] (compound alone, without UVA irradiation (FIG. 3B)) is given as “does not have cytotoxicity”. Moreover, the “sub-G1 DNA peak (apoptotic effects, percentage of cell counts)” value in the data set with BCC cells [2] was 35.4%. The “phosphorylation of JNK MAPK” value with JNK MAPK is “did not stimulate the phosphorylation”.
